Data on two compounds can be found in US20110111980A1, “METHOD FOR PROFILING DRUG COMPOUNDS” (priority 2008, published 2011).

Test [1] relates to UT-SCC-9, UT-SCC-27, UT-SCC-54C, and UT-SCC-76. As to the kind of experiment: PamChip kinase inhibition profiles of 4 patient derived head and neck squamous cell carcinoma cell lines. Format: biochemical. The note with it: selected set of peptides, FIG. 3b.
Description: Cells were harvested and were lysed in Mammalian Extraction Buffer (M-PER, Pierce) containing phosphatase and protease inhibitors (HALT, Pierce). Five microliter of the lysis solution was pipetted into a reaction mixture composed of 1×ABL buffer (New England Biolabs, cat.nr B6050S), 0.1% Bovine Serum Albumin, 100 μM ATP, 20 μg/ml phosphotyrosine antibody to an end volume of 40 microliter. Before incubation a blocking step was carried out on the substrate arrays with 0.2% bovine serum albumin. […] Real time data were obtained by measuring fluorescence of the bound anti-phosphotyrosine antibody after each 5 cycles. Image quantification and data processing was conducted with dedicated Pamgene software (Evolve and Bionavigator).
The 4 cell lines chosen, UT-SCC-9, UT-SCC-27, UT-SCC-54C, and UT-SCC-76 are patient derived cell lines, known to respond differently to radiation (in a model for therapy in head and neck cancer, squamous cell carcinomas, especially). […] The data shown are from a selected set of peptides of which the ratios of phosphorylation in the absence (0) and presence of the inhibitor are represented.
Test [2] has as its system Non Small Cell Lung Cancer (NSCLC) tissue. Description: PamChip kinase activity of NSCLC tumor tissue lysates with and without inhibitor. Format: biochemical. The note with it: 1 μmol/L inhibitor, short vs long survival patients, data not shown.

As for `Cc1ccc(-c2nn(C(C)(C)C)c3ncnc(N)c23)cc1` [PP1], the “inhibition profiles (ratios of phosphorylation in the absence and presence of the inhibitor), differences between cell lines” value in test [1] is on record as “pronounced differences”.
As for `COc1cc2ncnc(Nc3ccc(F)c(Cl)c3)c2cc1OCCCN1CCOCC1` [Gefitinib], in test [2], the “differences between the phosphorylation profiles with and without the protein kinase inhibitor” value is “a number of essential differences”.
